Where a name gives a salt, the structure may show the parent alone.
Experiments:
[1] = test system: KBM-5 chronic myeloid leukemia cells; test: In vivo antitumor activity (survival) in mice bearing KBM-5 cells
Description: (§1) Three to five week-old ICR SCID female mice weighting 20-25 g were obtained from Taconic farms. They were acclimatized for a week prior to the experiment. The animals were maintained on a standard animals feed and drinking water ad libitum. Mice were housed in an air-conditioned room at the temperature of 22±1° C. and 50-70% humidity with a 12/12 h-light/dark cycle throughout the experiment.
(§2) Mice were irradiated (1×250 centigray; cGy) and injected i.p. with 2×10^7 or 2,4×10^7 KBM-5 or KBM-5R tumor cells, respectively. […] In primary experiments (with KBM-5 cells) or secondary experiments (with KBM-5R cells), tumor-bearing animals were randomised (8-10 per group and treated by Troxatyl™ i.p. at 5, 10, 20, or 25 mg/kg once a day for 5 consecutive days (days 20-24). Control (untreated) mice received saline. In third experiments (with KBM-5 cells), tumor bearing animals (6 per group) were treated by one of the following schemes:
(§3) Animals in complete remission, free of detectable tumor (negative for human DQα-gen) were considered cured.
(§4) LTS were electively sacrificed on Day 95 in single agent experiments or on Day 100 in combination treatment experiment.

KBM-5 cells = conditions: KBM5 cells
Description: (§5) Two human CML, Ph+, p210 Bcr-Abl expressing cell lines were used, namely, KBM-5 and KBM-7. KBM-5 represents cells derived from a patient in the blastic phase of CML and is remarkable for the absence of normal c-ABL. KBM-7 has been identified to be a human near-haploid cell line.
(§6) The cells were cultured in Iscove's modified Dulbecco's medium supplemented with 10% fetal calf serum (Invitrogen Corp., Carlsbad, Calif.) at 37° C. in atmosphere of 5% CO2 in air.
(§7) Briefly, cells were seeded in triplicate in 96-well microtiter plates (Falcon, USA) at a concentration of 4×10^5 cells/ml. After exposure to the drug(s) for 72 h, 20 μl of MTS solution were added to each well, the plates were incubated for additional 4 h at 37° C., and absorbance at 490 nm was measured.

KBM-7 cells = conditions: KBM7 cells
Description: as §5, §6, §7

[2] = test system: KBM-5R chronic myeloid leukemia cells (STI-571 resistant); test: In vivo antitumor activity (survival) in mice bearing KBM-5R cells; conditions: for ILS % / Median survival time / Rang survival time / T/C %: qd × 5; for LTS (long term survivors): qd × 5, sacrificed Day 95
Description: as §1, §2, §3, §4

[3] = KBM-5, third (combination) experiment, 50 mg/kg ip, bid × 10
[4] = KBM-5, primary experiment, 5 mg/kg ip, qd × 5
[5] = KBM-5, primary experiment, 10 mg/kg ip, qd × 5
[6] = KBM-5, primary experiment, 20 mg/kg ip, qd × 5
[7] = KBM-5, primary experiment, 25 mg/kg ip, qd × 5
[8] = KBM-5, third (combination) experiment, 10 mg/kg ip, qd × 5
[9] = KBM-5, third (combination) experiment, 25 mg/kg ip, qd × 5

Description for KBM5-STI^R1.0 cells: (§8) In vitro growth inhibition effect of adaphostin on leukemic cells was determined by measuring MTS (CellTiter 96®Aqueous One Solution Reagent, Promega Corporation, WI) dye absorbance by living cells. Briefly, cells were seeded in triplicate in 96-well microtiter plates (Falcon, USA) at a concentration of 4×10^5 cells/ml. After exposure to the drug(s) for 72 h, 20 μl of MTS solution were added to each well, the plates were incubated for additional 4 h at 37° C., and absorbance at 490 nm was measured.
Description for KBM7-STI^R1.0 cells: as §8

Cc1ccc(NC(=O)c2ccc(CN3CCN(C)CC3)cc2)cc1Nc1nccc(-c2cccnc2)n1 [STI-571, imatinib mesylate]
ILS % [1, 3]: 8.95%
Median survival time [1, 3]: 31.16 days
Rang survival time [1, 3]: 26 to 40 days
STI-571 concentration up to which cells still proliferated (KBM5-STI^R1.0 cells): up to 10 μM
response to STI-571 exposure (KBM-5 cells): G0/G1 cell cycle arrest
STI-571 concentration at which proliferation was almost completely abolished (KBM7-STI^R1.0 cells): 7.5 µM
response to STI-571 exposure (KBM-7 cells): apoptosis

Nc1ccn([C@@H]2CO[C@H](CO)O2)c(=O)n1 [Troxatyl ™, (−)-β-L-Dioxolane-Cytidine]
ILS % ([2]; 5 mg/kg ip): 13.93%
Median survival time ([2]; 5 mg/kg ip): 37.142 days
Rang survival time ([2]; 5 mg/kg ip): 36 to 50 days
T/C % ([2]; 5 mg/kg ip): 113.93%
LTS (long term survivors) ([2]; 5 mg/kg ip): 2
ILS % ([2]; 10 mg/kg ip): 50.64%
Median survival time ([2]; 10 mg/kg ip): 49.11 days
Rang survival time ([2]; 10 mg/kg ip): 36 to 69 days
T/C % ([2]; 10 mg/kg ip): 150.64%
ILS % ([2]; 20 mg/kg ip): 56.84%
Median survival time ([2]; 20 mg/kg ip): 51.13 days
Rang survival time ([2]; 20 mg/kg ip): 37 to 69 days
T/C % ([2]; 20 mg/kg ip): 156.84%
ILS % ([2]; 25 mg/kg ip): 54.66%
Median survival time ([2]; 25 mg/kg ip): 50.42 days
Rang survival time ([2]; 25 mg/kg ip): 35 to 69 days
T/C % ([2]; 25 mg/kg ip): 154.66%
LTS (long term survivors) ([2]; 25 mg/kg ip): 1
ILS % [1, 4]: 57.09%
Median survival time [1, 4]: 54 days
Rang survival time [1, 4]: 46 to 66 days
T/C % [1, 4]: 157.09%
LTS (long term survivors) ([1]; KBM-5, primary experiment, 5 mg/kg ip, qd × 5, sacrificed Day 95): 1
ILS % [1, 5]: 45.45%
Median survival time [1, 5]: 50 days
Rang survival time [1, 5]: 44 to 66 days
T/C % [1, 5]: 145.45%
ILS % [1, 6]: 33.82%
Median survival time [1, 6]: 46 days
Rang survival time [1, 6]: 36 to 58 days
T/C % [1, 6]: 133.82%
ILS % [1, 7]: 68.73%
Median survival time [1, 7]: 58 days
Rang survival time [1, 7]: 35 to 74 days
T/C % [1, 7]: 168.73%
ILS % [1, 8]: 50.90%
Median survival time [1, 8]: 43.16 days
Rang survival time [1, 8]: 38 to 50 days
T/C % [1, 8]: 150.9%
ILS % [1, 9]: 71.33%
Median survival time [1, 9]: 49 days
Rang survival time [1, 9]: 40 to 56 days
T/C % [1, 9]: 171.33%

From patent US20040192652A1, “Pharmaceutical combinations and methods for the treatment of leukemia” (priority 2002, published 2004)
